{"source": "patent US9375411B2", "about": "“Uses and methods for the treatment of liver diseases or conditions” (Verlyx Pharma Inc., priority 2012, dated 2016)", "key": {"[1]": {"assay": "Oral bioavailability and biodistribution of pentamidine salts", "conditions": "mice; for Tissue Concentration Kidney / Tissue Concentration Liver / Tissue Concentration Lung / Tissue Concentration Pancreas: 24 hours after PO 200 mg/kg; for Tissue Concentration Kidney / Tissue Concentration Liver / Tissue Concentration Lung / Tissue Concentration Pancreas / AUCINF / Cl/F / Cmax / MRT / Tmax / t½: 200 mg/kg; for F* / AUCINF / Cl/F / Cmax / MRT / Tmax / t½: oral 200 mg/kg; for F*: based on the iv AUC at 5 mg/kg of 19.08; for AUCINF / Cl/F / Cmax / MRT / Tmax / t½: blood", "description": "In this experiment, HCl, isethionate and tosylate salts of pentamidine were administered orally to mice and their PK and tissue accumulations were compared.\nPK parameters for pentamidine salt following oral administration of 200 mg/kg in mice.\nBiodistribution of Pentamidine Salts in mice, 24 hours after PO administration of 200 mg/kg."}, "[2]": {"tested_on": "GalN/LPS-induced liver injury", "assay": "GalN/LPS fulminant liver injury survival study", "format": "in vivo", "conditions": "C57BL/6 mice; IP 30 minutes prior GalN/LPS; PENTAMIDINE 40 mpk, Decamidine 10 mpk", "description": "In this experiment, the 8-hour survival rate for C57BL/6 mice is evaluated when treated or not with two different aromatic diamidines (pentamidine isethionate(C5) and decamidine isethionate (C10)). Both compounds were administered intraperitoneally at doses close to their MTD 30 minutes prior a GalN/LPS-induced liver injury."}}, "note": "Counter-ions that a name gives are not always drawn."}
{"molecule": "N=C(N)c1ccc(OCCCCCOc2ccc(C(=N)N)cc2)cc1", "note": "[HCl salt, pentamidine bis-HCl]", "values": [{"measurement": "Tissue Concentration Kidney", "setting": "[1]; listed as Penta-HCL, bis-HCl", "value": 156.3, "unit": "µM"}, {"measurement": "Tissue Concentration Liver", "setting": "[1]; listed as Penta-HCL, bis-HCl", "value": 224.6, "unit": "µM"}, {"measurement": "Tissue Concentration Lung", "setting": "[1]; listed as Penta-HCL, bis-HCl", "value": 43.4, "unit": "µM"}, {"measurement": "Tissue Concentration Pancreas", "setting": "[1]; listed as Penta-HCL, bis-HCl", "value": 16.6, "unit": "µM"}, {"measurement": "F*", "setting": "[1]; bis-HCl", "value": 20.7}, {"measurement": "AUCINF", "setting": "[1]; bis-HCl", "value": 158.1, "unit": "µM·h"}, {"measurement": "Cl/F", "setting": "[1]; bis-HCl", "value": 85, "unit": "mL/min/kg"}, {"measurement": "Cmax", "setting": "[1]; bis-HCl", "value": 5240, "unit": "nM"}, {"measurement": "MRT", "setting": "[1]; bis-HCl", "value": 136.0, "unit": "h"}, {"measurement": "Tmax", "setting": "[1]; bis-HCl", "value": 2.67, "unit": "h"}, {"measurement": "t½", "setting": "[1]; bis-HCl", "value": 90.8, "unit": "h"}]}
{"molecule": "N=C(N)c1ccc(OCCCCCOc2ccc(C(=N)N)cc2)cc1", "note": "[Tosylate salt, pentamidine tosylate]", "values": [{"measurement": "Tissue Concentration Kidney", "setting": "[1]; listed as Penta-Tos", "value": 1.9, "unit": "µM"}, {"measurement": "Tissue Concentration Liver", "setting": "[1]; listed as Penta-Tos", "value": 4.1, "unit": "µM"}, {"measurement": "Tissue Concentration Lung", "setting": "[1]; listed as Penta-Tos", "value": 0.5, "unit": "µM"}, {"measurement": "Tissue Concentration Pancreas", "setting": "[1]; listed as Penta-Tos", "value": 0.5, "unit": "µM"}, {"measurement": "F*", "setting": "[1]", "value": 2.3}, {"measurement": "AUCINF", "setting": "[1]", "value": 17.8, "unit": "µM·h"}, {"measurement": "Cl/F", "setting": "[1]", "value": 440, "unit": "mL/min/kg"}, {"measurement": "Cmax", "setting": "[1]", "value": 430, "unit": "nM"}, {"measurement": "MRT", "setting": "[1]", "value": 86.0, "unit": "h"}, {"measurement": "Tmax", "setting": "[1]", "value": 6.67, "unit": "h"}, {"measurement": "t½", "setting": "[1]", "value": 54.9, "unit": "h"}]}
{"molecule": "N=C(N)c1ccc(OCCCCCCCCCCOc2ccc(C(=N)N)cc2)cc1", "note": "[Decamidine, decamidine isethionate]", "values": [{"measurement": "8-hour survival", "setting": "[2]", "value": 100, "unit": "%"}]}
